In brackets after ≈: the same amount, converted by molar mass.

For data set [1] the following is noted: 25° C.; cited from earlier work.
Data set [2] in a line: Determination of the aqueous solubility of Forskolin (intrinsic solubility, HPLC). It is filed as physicochemical. The procedure:
Determination of the aqueous solubility of Forskolin. Forskolin (300 mg) was dried at 105° C. for 6 hours. Dried Forskolin 200 mg was stirred with 100 ml water for 48 hours for the determination of intrinsic solubility at ambient temperatureResulting solution was filtered through 0.45 μm nylon filter and analyzed for the content of Forskolin by HPLC.

Data set [3] is described as follows: Dissolution in water of Forskolin-RAMEBCD residue obtained by evaporating acetone. It is filed as physicochemical. Particulars: Forskolin 50 mg + RAMEBCD 1 gram from acetone, residue in 5 ml water. The procedure: Alternatively, the cyclodextrin and Forskolin in certain proportions are dissolved in a suitable solvent such as ethanol or acetone or ethyl acetate. The solvent is removed to leave behind a white powder. Such powder freely dissolves in water as the examples will illustrate. Further, additives to the aqueous solution of Forskolin can also be added. These additives are usually used for maintaining sterility, pH maintenance, maintenance of osmolarity etc.
Forskolin (50 mg) was dissolved in 5 ml acetone, and 1 gram of RAMEBCD was dissolved in 5 ml acetone separately. Both the solutions were mixed together and solvent acetone was evaporated under reduced pressure. Residue was dried and dissolved in 5 ml water. This residue dissolved very easily within 1 hour of stirring forming a clear colorless solution.

Data set [4] is described as follows: Solubility of Forskolin / Isoforskolin in water containing cyclodextrin (HPLC of filtered solution). It is filed as physicochemical. As to the method:
To solubilize Forskolin using cyclodextrins, the chosen cyclodextrin and Forskolin are mixed in water in specific proportions. The aqueous solution is filtered to remove any undissoved particles to obtain a clear aqueous solution of Forskolin in water.
Forskolin (98.5% assay, 25 mg) was added to 1 ml water containing in the dissolved state 500 mg Hydroxy propyl β cyclodextrin, HPBCD, (˜50%) Suspension was agitated at 75 RPM in an isothermal shaker for 60 hours at temperature ˜30° C.
Forskolin (98.5% assay, 50 mg) was added to 1 ml water containing 500 mg Hydroxy propyl γ-cyclodextrin in the dissolved state. (HPGCD) (˜50%). Suspension was agitated at 75 RPM in an isothermal shaker for 60 hours at temperature ˜30° C.
Experiments were performed by “changing” the crystallinity of Forskolin by recrystallizing from methylene chloride and from ethyl acetate. Resulting “amorphous” Forskolin was used for complexation with Hydroxyropyl γ-cyclodextrin HPGCD. Forskolin (29.3 mg) recrystallized with methylene dichloride (Forskolin assay 99.0%) was added to 3 ml water containing 1.5 gram Hydroxy propyl γ-cyclodextrin, HPGCD (˜50%). Suspension was agitated at 75 RPM in an isothermal shaker for 160 hour at temperature 30° C.
Forskolin (30.3 mg) recrystallized with ethyl acetate (Forskolin assay 98.8%) was added to 3 ml water containing 1.5 gram Hydroxy propyl γ-cyclodextrin, HPGCD (˜50%). Suspension was agitated at 75 RPM in an isothermal shaker for 160 hour at temperature 30° C.
Forskolin (98.5% assay, 330 mg) was added to 10 ml water containing 4 g of RAMEBCD (˜40%). Suspension was agitated at 75 RPM in an isothermal shaker for 40 hours at temperature 30° C.
Solubility of Forskolin in water was determined at the different concentrations of RAMEBCD ranging from 5 to 66%.
A typical aqueous formulation of Forskolin with a cyclodextrin is prepared as follows, RAMEBCD, being used as the example of cyclodextrin RAMEBCD (100 g) is taken in a one liter flask with mechanical or magnetic stirring facility. Forskolin (5.5 g) was charged into the flask. Water (400 ml) is charged to the flask and the contents were agitated at room temperature. A clear solution is obtained. If any undissolved Forskolin particles are seen, they are resuspended and stirred. Benzalkonium chloride (50 mg) and Disodium EDTA (500 mg) are added and dissolved in the flask. The pH of the contents could be adjusted to the desired range with the help of 0.1N sodium hydroxide. (usually pH range 3.5 to 7.5). Calculated amount of sodium chloride solution is added to maintain the osmolarity of the solution equivalent to that of 0.9% sodium chloride. The total volume of the solution is made up to 500 ml after sterile filtration. A solution thus prepared has approximately 1% of Forskolin in the dissolved state. Other cyclodextrins also could be used and depending on the cyclodextrin used, the dissolved content of Forskolin in water differed.
Isoforskolin also could be used in place of Forskolin. In one preparation, Isoforskolin (50 mg) was suspended in water containing a suitable amount of a cyclodextrin, for example, R AMEBCD (20 g) in about 100 ml water.

The conditions of data set [5]: polyvinylpyrrolidone and polyethyleneglycol-glyceryl tririicinoleate, U.S. Pat. No. 6,346,273; cited from earlier work.
Data set [6] concerns Intraocular pressure (IOP), ocular hypertension. The data set can be described thus: Anti-glaucoma activity: intraocular pressure (IOP) in rabbits with betamethasone-induced ocular hypertension, non-contact tonometer. It is filed as in vivo, Albino rabbit (New Zealand strain). Particulars: for IOP Readings, right eye (treated): average of 6 determinations. From the text: An illustrative example of the biological activity of the preparation is presented. The anti-glaucoma activity of the forskolin composition was studied in albino rabbits. A 1% solution of Forskolin in water as described in example 8 was used for the experiments
Study design: Animal model: Albino rabbit Number of groups: 4 Number of animals in each group: 6 in treatment group and 2 in control group
Materials and methods: Six albino rabbits of New Zealand strain, of both sexes, weighing […] were chosen. The rabbits were housed in clean and well-ventilated open space. Each rabbit was fed with standard diet daily and water was administered ad libitum throughout the study.
Ocular hypertension was induced by the method reported by Bonomi et al (Invest Ophthalmol. 1976 September; 15(9):781-4.) The rabbits were given 0.3 ml subconjunctival injection of Betnesol containing betamethasone sodium 4 mg/ml, every day to each eye for a period of three weeks (the Intraocular pressure (IOP) at third week was maximum as per literature). Local anesthetic propracaine eye drops were used prior to subconjunctival injections.
In each rabbit the left eye was kept as control for glaucoma and the right eye was treated for glaucoma using Forskolin, Timolol, and the placebo.
For each treatment, the IOP readings were measured at intervals of 30 minutes up to 210 minutes using the non-contact tonometer (NCT).

As for `OC[C@H]1O[C@@H]2O[C@H]3[C@H](O)[C@@H](O)[C@@H](O[C@H]4[C@H](O)[C@@H](O)[C@@H](O[C@H]5[C@H](O)[C@@H](O)[C@@H](O[C@H]6[C@H](O)[C@@H](O)[C@@H](O[C@H]7[C@H](O)[C@@H](O)[C@@H](O[C@H]8[C@H](O)[C@@H](O)[C@@H](O[C@H]9[C@H](O)[C@@H](O)[C@@H](O[C@H]%10[C@H](O)[C@@H](O)[C@@H](O[C@H]1[C@H](O)[C@H]2O)O[C@@H]%10CO)O[C@@H]9CO)O[C@@H]8CO)O[C@@H]7CO)O[C@@H]6CO)O[C@@H]5CO)O[C@@H]4CO)O[C@@H]3CO` [δ-cyclodextrin], the Water solubility in data set [1] is given as 8.19 g/100 ml.

Broadly, the solubility is the dissolved amount per volume that the medium holds. For the compound `C=C[C@@]1(C)CC(=O)[C@]2(O)[C@@]3(C)[C@@H](O)CCC(C)(C)[C@@H]3[C@H](O)[C@H](OC(C)=O)[C@@]2(C)O1` [Forskolin], the “Concentration of Forskolin solution in water in the absence of cyclodextrin” value in data set [2] (no cyclodextrin) is given as “about 0.001%”. The “Content of Forskolin by HPLC (intrinsic solubility in water)” value in data set [2] (stirred 48 hours, ambient temperature, 0.45 μm filtered) came to 0.001 % w/v. In data set [2] (thermodynamic from solid, water, stirred 48 hours, ambient temperature, 0.45 μm filtered, read-out: Content of Forskolin by HPLC (intrinsic solubility in water)), the solubility at 48 h worked out at 10 µg/mL (≈ 24.4 µM). Further, in data set [3], the “Time of stirring for the residue to dissolve in water forming a clear colorless solution” value is ≤ 1 h. For the same compound, the “% Forskolin w/v (solubility in water)” value worked out at 0.09 % w/v in data set [4] (5% RAMEBCD); 0.272 % w/v in data set [4] (10% RAMEBCD); 0.767 % w/v in data set [4] (15% RAMEBCD); 1.15 % w/v in data set [4] (20% RAMEBCD); 2.746 % w/v in data set [4] (40% RAMEBCD); 4.165 % w/v in data set [4] (53.28% RAMEBCD). Also, in data set [4] (66.6% RAMEBCD), the “% Forskolin w/v (solubility in water)” value came out at 5.029 % w/v. Also, the “Forskolin in the dissolved state in the aqueous formulation” value in data set [4] (Example 8 formulation: RAMEBCD 100 g, Forskolin 5.5 g, made up to 500 ml, room temperature) is given as “approximately 1%”. Moreover, the “Maximum solubility of Forskolin achieved” value in data set [5] was 0.2%. For the same compound, in data set [6] (1% solution of Forskolin in water as in example 8), the “Anti-glaucoma activity (conclusion)” value is given as “anti-glaucoma activity comparable to Timolol”. Also, the “IOP Readings, right eye (treated)” value in data set [6] (time 0 mins) was found to be 14 mmHg; in data set [6] (time 30 mins) it was 7 mmHg; in data set [6] (time 60 mins), 6.5 mmHg; in data set [6] (time 90 mins), 4.5 mmHg; in data set [6] (time 120 mins) it was 5 mmHg; in data set [6] (time 150 mins), 6 mmHg. The “IOP Readings, right eye (treated)” value in data set [6] (time 180 mins) is reported as 7 mmHg; in data set [6] (time 210 mins), 7.5 mmHg.

Take `CC(C)(C)NC[C@H](O)COc1nsnc1N1CCOCC1` [Timolol]: the “IOP Readings, right eye (treated)” value turned out to be 13 mmHg in data set [6] (time 0 mins); 8 mmHg in data set [6] (time 30 mins); 7 mmHg in data set [6] (time 60 mins); 5 mmHg in data set [6] (time 90 mins); 4 mmHg in data set [6] (time 120 mins); 3.5 mmHg in data set [6] (time 150 mins). Further, the “IOP Readings, right eye (treated)” value stood at 4.5 mmHg in data set [6] (time 180 mins) and 6 mmHg in data set [6] (time 210 mins).

Take `C=C[C@@]1(C)CC(=O)[C@@]2(O)[C@](C)(O1)[C@@H](O)[C@@H](OC(C)=O)C1C(C)(C)CC[C@H](O)[C@@]12C` (some centres unmarked) [Isoforskolin]: in data set [4] (RAMEBCD (20 g) in about 100 ml water, room temperature), the “Isoforskolin present in filtered solution by HPLC” value is “approximately 0.5%”.

(Values after patent publication US6960300B2, “Process for preparing water soluble diterpenes and their applications” (Sami Labs Limited, priority 2003, dated 2005).)
